Among the data in ChEMBL document CHEMBL2413012, “Inhibition of tumor-associated human carbonic anhydrase isozymes IX and XII by a new class of substituted-phenylacetamido aromatic sulfonamides” (Bioorg Med Chem, 2013) are Ki values, retold here.

Structures are written as SMILES.

Sequence of Carbonic anhydrase 12 (O43570 whole entry): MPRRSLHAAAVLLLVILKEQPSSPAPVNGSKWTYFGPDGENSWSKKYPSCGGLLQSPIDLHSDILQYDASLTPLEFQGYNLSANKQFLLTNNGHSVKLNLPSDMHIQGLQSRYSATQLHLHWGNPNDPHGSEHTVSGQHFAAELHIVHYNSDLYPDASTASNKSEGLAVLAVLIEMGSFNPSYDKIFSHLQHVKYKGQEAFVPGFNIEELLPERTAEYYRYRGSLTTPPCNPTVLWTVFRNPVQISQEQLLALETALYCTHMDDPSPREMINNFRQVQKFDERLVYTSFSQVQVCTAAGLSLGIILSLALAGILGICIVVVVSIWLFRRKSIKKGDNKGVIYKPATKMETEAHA

For one test, the target named is Carbonic anhydrase 9 (Homo sapiens, UniProt Q16790). The test can be described thus: Inhibition of human recombinant carbonic anhydrase 9 preincubated for 10 mins by CO2 hydration stopped-flow assay.
By Ki is commonly meant the equilibrium dissociation constant of an inhibitor or competing ligand from its target. In the case of `COc1ccc(CC(=O)NCCc2ccc(S(N)(=O)=O)cc2)cc1`, the Ki was found to be 0.25 nM.

`NS(=O)(=O)c1ccc(CCNC(=O)Cc2ccc(Cl)cc2)cc1`: the Ki was found to be 1.2 nM. Still for that read-out and setting: then `NS(=O)(=O)c1ccc(NC(=O)Cc2ccc(Cl)cc2)c(Br)c1`, with 1.2 nM. In the case of `NS(=O)(=O)c1ccc(NC(=O)Cc2ccccc2Br)c(Br)c1`, the Ki stood at 0.52 nM.

On to `COc1ccc(CC(=O)Nc2ccc(S(N)(=O)=O)cc2Br)cc1`, for which the Ki was found to be 0.62 nM. Take `NS(=O)(=O)c1ccc(CNC(=O)Cc2ccc(Cl)cc2)cc1`: the inhibition constant Ki amounted to 0.53 nM. Take `NS(=O)(=O)c1ccc(CNC(=O)Cc2ccccc2Br)cc1`: the Ki is 1 nM.

On to `COc1ccc(CC(=O)NCc2ccc(S(N)(=O)=O)cc2)cc1`, for which the inhibition constant (Ki) was found to be 0.45 nM.

For the compound `NS(=O)(=O)c1ccc(CCNC(=O)Cc2ccc(F)cc2)cc1`, the inhibition constant (Ki) is 6.5 nM. As to `NS(=O)(=O)c1ccc(CCNC(=O)Cc2ccccc2Br)cc1`, the inhibition constant (Ki) is 0.57 nM. For the compound `NS(=O)(=O)c1nnc(NC(=O)Cc2ccc(F)cc2)s1`, the Ki was found to be 2.1 nM. Consider `NS(=O)(=O)c1nnc(NC(=O)Cc2ccc(Cl)cc2)s1`, for which the Ki was determined as 1.3 nM. With `NS(=O)(=O)c1nnc(NC(=O)Cc2ccccc2Br)s1`, the Ki was 0.61 nM. On the same count and under the same terms, to `COc1ccc(CC(=O)Nc2nnc(S(N)(=O)=O)s2)cc1` belongs 0.31 nM; to `NS(=O)(=O)c1ccc(NC(=O)Cc2ccc(F)cc2)cc1`, 4.7 nM; to `NS(=O)(=O)c1ccc(NC(=O)Cc2ccc(Cl)cc2)cc1`, 72.5 nM. For `NS(=O)(=O)c1ccc(NC(=O)Cc2ccccc2Br)cc1`, the inhibition constant Ki was 0.44 nM. Regarding `COc1ccc(CC(=O)Nc2ccc(S(N)(=O)=O)cc2)cc1`, the inhibitory constant (Ki) is 0.32 nM. With `NS(=O)(=O)c1ccc(NC(=O)Cc2ccc(F)cc2)c(F)c1`, the Ki was 7.2 nM. For the compound `NS(=O)(=O)c1ccc(NC(=O)Cc2ccc(Cl)cc2)c(F)c1`, the inhibitory constant (Ki) stood at 7.8 nM. Turning to `NS(=O)(=O)c1ccc(NC(=O)Cc2ccccc2Br)c(F)c1`, the Ki turned out to be 1.6 nM. Consider `COc1ccc(CC(=O)Nc2ccc(S(N)(=O)=O)cc2F)cc1`, for which the inhibitory constant (Ki) amounted to 1.8 nM. Still for that read-out and setting: to `NS(=O)(=O)c1ccc(NC(=O)Cc2ccc(F)cc2)c(Cl)c1` belongs 10.1 nM; to `NS(=O)(=O)c1ccc(NC(=O)Cc2ccc(Cl)cc2)c(Cl)c1`, 6.3 nM; to `NS(=O)(=O)c1ccc(NC(=O)Cc2ccccc2Br)c(Cl)c1`, 0.74 nM. Consider `COc1ccc(CC(=O)Nc2ccc(S(N)(=O)=O)cc2Cl)cc1`, for which the inhibitory constant (Ki) worked out at 0.41 nM. In the case of `NS(=O)(=O)c1ccc(NC(=O)Cc2ccc(F)cc2)c(Br)c1`, the inhibitory constant (Ki) was found to be 5 nM.

A further test addresses Carbonic anhydrase 12 (Homo sapiens, UniProt O43570). As to the kind of experiment: Inhibition of human recombinant carbonic anhydrase 12 preincubated for 10 mins by CO2 hydration stopped-flow assay.
Turning to `COc1ccc(CC(=O)NCCc2ccc(S(N)(=O)=O)cc2)cc1`, the inhibitory constant (Ki) was found to be 0.43 nM.

Consider `NS(=O)(=O)c1ccc(CCNC(=O)Cc2ccc(Cl)cc2)cc1`, for which the inhibitory constant (Ki) was found to be 3.4 nM.
